# Assay results from US20210181109A1 (FUJIFILM Corporation, priority 2018, published 2021).
# How the values were obtained:
# [1] = NAC depletion percent, HPLC-fluorescence detection
# Procedure: (§1) 1) To a 50 mL vessel, 11.6 mg (±0.1 mg) of NAC is weighed; to this, a 25 mL measuring pipet is used to add 20 mL of 100 mmol/L phosphate buffer (pH: 8.0); and the content is gently stirred using a test tube mixer to achieve dissolution (2 mmol/L). 2) To a 500 mL vessel, 149.5 mL of this buffer is added using a 50 mL measuring pipet; to this, 0.5 mL of the above-described 2 mmol/L NAC solution is added; and the content is mixed by inversion to achieve 300-fold dilution (6.667 μmon).
# (§2) The test substance undiluted solution is defined as an “undiluted solution”, and used. Incidentally, this “undiluted solution” may be appropriately diluted to, for example, 1/10, 1/100, or 1/1000, using an appropriate solvent, and the resultant solution may be used.
# (§3) Subsequently, the solution having the maximum dissolution concentration is defined as an “undiluted solution”, and tested. Incidentally, this “undiluted solution” may be appropriately diluted to, for example, 1/10, 1/100, or 1/1000, using an appropriate solvent, and the resultant solution may be used.
# (§4) The test substance is prepared at 1 mmol/L in any of solvents that are water, acetonitrile, acetone, and a 5 mass % dimethyl sulfoxide (DMSO)/acetonitrile solution and used as a test substance solution. As the solvent, a solvent in which the test substance dissolves at 1 mmol/L is used; when the test substance is soluble in a plurality of solvents, the solvent is selected in the following order of decreasing precedence: water, acetonitrile, acetone, and 5 mass % DMSO/acetonitrile.
# (§5) Test substance solutions are prepared on a 96-well plate (U96 PP-0.5 ML NATURAL, Thermo Fisher Scientific Inc. (NUNC)) mainly using a 12-channel pipette, and a reagent is added in accordance with the following formula.
# (§6) Nucleophilic reagent (NAC and NAL): 150 μL
# (§7) Test substance solution: 50 μL
# (§8) The plate is tightly sealed using a plate sealing (Resistant embossed seal, SHIMADZU GLC Ltd.), and stirred using a plate shaker (Titramax 100, Heidolph Instruments GmbH & CO. KG). The plate is subjected to spinning down using a centrifuge, and then to incubation at 25° C., for 24 hours, in a light-shielded state.
# (§9) After the incubation for 24 hours, the plate sealing is removed; to each sample, 50 µL of the reaction stopping solution is added to stop the reaction.
# (§10) The HPLC measurement conditions for the nucleophilic reagents are as follows.
# (§11) From the average values (each, n=3) of peak areas of the post-reaction unreacted NAC or NAL and the blank-test (after performing the reaction step without addition of the test substances) NAC or NAL, the following formula is used to calculate the depletion percent of NAC or NAL.
# (§12) NAC depletion percent (% depletion)=[1−(Average value of peak areas of post-reaction unreacted NAC/Average value of peak areas of blank-test (after performing the reaction step without addition of the test substances) NAC)]×100
# (§13) The average value of peak areas of the post-reaction unreacted NAC is the average value of areas obtained by measuring three times post-reaction unreacted NAC. The average value of peak areas of blank-test (after performing the reaction step without addition of the test substances) NAC is the average value of areas obtained by measuring three times blank-test (after performing the reaction step without addition of the test substances) NAC.
# (§14) The reactions were each performed on a 96-well plate, and the number of samples of each case was set to n=3. In addition, as controls, reaction solutions including the solvent alone were prepared. The reaction solutions were prepared so as to have a NAC or NAL concentration of 5 μmon. To the reaction solutions after the lapse of 24 hours, a trifluoroacetic acid (TFA) aqueous solution was added such that the final concentration became 0.5% (v/v) TFA. Subsequently, HPLC was performed for measurements by two detection methods that were light absorption detection using a photodiode array (PDA) detector, and fluorescence detection using a fluorescence detector.
# [2] = NAL depletion percent, HPLC-fluorescence detection
# Procedure: as §1, with “12.6” for “11.6”, “NAL” for “NAC”, “10.2);” for “8.0);”, “mixture” for “mixer”, “mmol/L NAL solution).” for “mmol/L).”, “μmol/L).” for “μmon).”
# as §2, §3, §4, §5, §6, §7, §8, §9, §10, §11
# (§15) NAL depletion percent (% depletion)=[1−(Average value of peak areas of post-reaction unreacted NAL/Average value of peak areas of blank-test (after performing the reaction step without addition of the test substances) NAL)]×100
# (§16) The average value of peak areas of post-reaction unreacted NAL is the average value of areas obtained by measuring three times post-reaction unreacted NAL. The average value of peak areas of blank-test (after performing the reaction step without addition of the test substances) NAL is the average value of areas obtained by measuring three times blank-test (after performing the reaction step without addition of the test substances) NAL.
# as §14
# [3] = Average score of NAC and NAL depletion and prediction of skin allergenicity, fluorescence method; settings: for Average score: test substance solution 1 mmol/L
# Procedure: (§17) The average value (Average Score) of NAC and NAL depletion percents is calculated. In the resultant value, the second decimal place is rounded off.
# (§18) Average value (Average Score) of NAC and NAL depletion percents=(NAC depletion percent+NAL depletion percent)/2
# (§19) The depletion percent of at least one of NAC or NAL or the average score of the depletion percents of NAC and NAL is calculated, and whether or not the test substances are “allergenic substances” or “non-allergenic substances” is determined:
# (§20) (1) in a case of performing evaluation based on the average value of the depletion percent of NAC and the depletion percent of NAL,
# (§21) In the following Tables, S represents as being an allergenic substance and NS represents as being a non-allergenic substance.
# [4] = NAC depletion percent, HPLC-UV detection (281 nm)
# Procedure: as §1, §2, §3, §4, §5, §6, §7, §8, §9, §10, §11, §12, §13, §14
# [5] = NAL depletion percent, HPLC-UV detection (281 nm)
# Procedure: as §1, with “12.6” for “11.6”, “NAL” for “NAC”, “10.2);” for “8.0);”, “mixture” for “mixer”, “mmol/L NAL solution).” for “mmol/L).”, “μmol/L).” for “μmon).”
# as §2, §3, §4, §5, §6, §7, §8, §9, §10, §11, §15, §16, §14
# [6] = Average score of NAC and NAL depletion and prediction of skin allergenicity, UV method; settings: for Average score: test substance solution 1 mmol/L
# Procedure: as §17, §18, §19, §20, §21
# [7] = Fluorescence method, non-allergenic substance
# [8] = Fluorescence method, skin allergenicity prediction
# [9] = Reference (UV method), non-allergenic substance
# [10] = Reference (UV method), skin allergenicity prediction
# [11] = single substance, test substance solution 1 mmol/L, fluorescence method
# [12] = single substance, fluorescence method
# [13] = single substance, test substance solution 1 mmol/L, Reference (UV method)
# [14] = single substance, Reference (UV method)
# [15] = single substance, fluorescence method, criterion average score […]
# [16] = single substance, Reference (UV method), criterion average score […]
Compound,"NAC depletion (%) [1, 7] [%]","NAL depletion (%) [2, 7] [%]","Prediction result [3, 8]","NAC depletion (%) [4, 9] [%]","NAL depletion (%) [5, 9] [%]","Prediction result [6, 10]",further results
CCCCBr [1-Bromobutane],0.0,0.0,NS (NS represents as being a non-allergenic substance),0.1,2.4,NS (NS represents as being a non-allergenic substance),
"CC(=O)C(C)=O [2,3-Butanedione]",,,,,,,"NAC depletion (%) [1, 11]: 45.2%; NAL depletion (%) [2, 11]: 17.7%; Average score [3, 12]: 31.4%; NAC depletion (%) [4, 13]: 41.2%; NAL depletion (%) [5, 13]: 25.5%; Average score [6, 14]: 33.4%"
"O=[N+]([O-])c1ccc(Cl)c([N+](=O)[O-])c1 [2,4-Dinitrochlorobenzene]",,,,,,,"NAC depletion (%) [1, 11]: 91.6%; NAL depletion (%) [2, 11]: 0.0%; Prediction result [3, 15]: S (S represents as being an allergenic substance); Average score [3, 12]: 45.8%; NAC depletion (%) [4, 13]: 89.3%; NAL depletion (%) [5, 13]: 6.1%; Prediction result [6, 16]: S (S represents as being an allergenic substance); Average score [6, 14]: 47.7%"
CC(=O)C1CCCCC1=O (stereo not drawn) [2-Acetylcyclohexanone],3.5,0.0,NS (NS represents as being a non-allergenic substance),1.3,0.3,NS (NS represents as being a non-allergenic substance),
C=C(C)C(=O)OCC(C)O (stereo not drawn) [2-Hydroxypropyl methacrylate],2.0,0.2,NS (NS represents as being a non-allergenic substance),2.4,2.2,NS (NS represents as being a non-allergenic substance),
O=C(O)c1ccc(O)cc1 [4-Hydroxybenzoic acid],2.9,0.1,NS (NS represents as being a non-allergenic substance),0.0,−1.4,NS (NS represents as being a non-allergenic substance),
COc1ccc(C(C)=O)cc1 [4′-Methoxyacetophenone],1.2,0.0,NS (NS represents as being a non-allergenic substance),3.3,3.3,NS (NS represents as being a non-allergenic substance),
"CC(=O)C(=O)CC(C)C [5-Methyl-2,3-hexanedione]",,,,,,,"NAC depletion (%) [1, 11]: 14.8%; NAL depletion (%) [2, 11]: 26.1%; Prediction result [3, 15]: S (S represents as being an allergenic substance); Average score [3, 12]: 20.4%; NAC depletion (%) [4, 13]: 6.4%; NAL depletion (%) [5, 13]: 34.8%; Prediction result [6, 16]: S (S represents as being an allergenic substance); Average score [6, 14]: 20.6%"
Cc1ccc2oc(=O)ccc2c1 [6-Methylcoumarin],1.3,0.1,NS (NS represents as being a non-allergenic substance),0.0,1.0,NS (NS represents as being a non-allergenic substance),
O=C(OCc1ccccc1)c1ccccc1 [Benzyl benzoate],,,,,,,"NAC depletion (%) [1, 11]: 0.0%; NAL depletion (%) [2, 11]: 0.3%; Average score [3, 12]: 0.1%; NAC depletion (%) [4, 13]: 0.0%; NAL depletion (%) [5, 13]: 2.8%; Average score [6, 14]: 1.4%"
O=c1ccc2ccccc2o1 [Coumarin],1.2,0.4,NS (NS represents as being a non-allergenic substance),0.5,3.9,NS (NS represents as being a non-allergenic substance),
CCOC(=O)c1ccccc1C(=O)OCC [Diethyl phthalate],0.0,0.2,NS (NS represents as being a non-allergenic substance),0.0,1.7,NS (NS represents as being a non-allergenic substance),
CC(C)=CCCC(C)=CCCC(C)=CC=O [Farnesal],,,,,,,"NAC depletion (%) [1, 11]: 22.4%; NAL depletion (%) [2, 11]: 4.9%; Prediction result [3]: S (key: S represents as being an allergenic substance; NS represents as being a non-allergenic substance); Average score [3, 12]: 13.6%; NAC depletion (%) [4, 13]: 17.2%; NAL depletion (%) [5, 13]: 8.8%; Prediction result [6]: S (key: S represents as being an allergenic substance; NS represents as being a non-allergenic substance); Average score [6, 14]: 13.0%"
OCC(O)CO [Glycerol],0.2,0.0,NS (NS represents as being a non-allergenic substance),0.3,0.7,NS (NS represents as being a non-allergenic substance),
CCCCCC [Hexane],,,NS (NS represents as being a non-allergenic substance),,,NS (NS represents as being a non-allergenic substance),NAC depletion (%) [1]: 0.0%; NAL depletion (%) [2]: 0.0%; NAC depletion (%) [4]: 0.2%; NAL depletion (%) [5]: 0.9%
CC(C)O [Isopropanol],1.1,4.6,NS (NS represents as being a non-allergenic substance),0.1,2.8,NS (NS represents as being a non-allergenic substance),
CCCCCCCCCCCCCC(=O)OC(C)C [Isopropyl myristate],0.4,5.8,NS (NS represents as being a non-allergenic substance),0.0,1.8,NS (NS represents as being a non-allergenic substance),
